Peptide text beside a SMILES is read from it.
How the values were obtained:
[1] = sensory evaluation in previous work; ref [7]; cited from earlier work
Description: Table 1 Prediction results of physicochemical properties and potential activity of peptides. | column: Umami Threshold (mg/mL)

[2] = target: T1, α-Glucosidase from Saccharomyces cerevisiae (Saccharomyces cerevisiae, UniProt P53341); assay: α-Glucosidase inhibitory activity (pNPG); assay type: biochemical; settings: PBS pH 6.8, 37 °C, 405 nm; for α-glucosidase inhibitory rate: 10 mM peptide, pNPG, n = 3; for IC50: 15 min preincubation, pNPG 15 min, mean ± SD (n = 3), read-out: IC50 value, α-glucosidase inhibition
T1 construct: purchased Yuanye Bio-Technology Co., Ltd. (Shanghai, China)
T1 sequence (P53341 whole entry): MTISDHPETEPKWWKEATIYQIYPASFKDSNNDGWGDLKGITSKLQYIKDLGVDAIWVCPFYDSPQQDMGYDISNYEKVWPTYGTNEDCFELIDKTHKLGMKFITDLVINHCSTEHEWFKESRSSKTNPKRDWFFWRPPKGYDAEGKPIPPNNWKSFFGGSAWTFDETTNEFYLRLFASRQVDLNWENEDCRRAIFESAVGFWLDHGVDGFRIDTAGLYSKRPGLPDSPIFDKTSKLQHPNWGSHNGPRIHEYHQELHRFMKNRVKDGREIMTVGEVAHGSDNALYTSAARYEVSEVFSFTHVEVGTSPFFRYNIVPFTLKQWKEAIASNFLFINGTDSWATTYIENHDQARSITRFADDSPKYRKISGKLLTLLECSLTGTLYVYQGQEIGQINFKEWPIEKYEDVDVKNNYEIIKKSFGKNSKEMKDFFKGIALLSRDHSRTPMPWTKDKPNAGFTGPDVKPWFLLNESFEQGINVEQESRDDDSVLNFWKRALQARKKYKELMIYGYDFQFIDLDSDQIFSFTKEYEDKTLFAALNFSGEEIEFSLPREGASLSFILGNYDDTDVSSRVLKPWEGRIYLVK
Description: α-Glucosidase from Saccharomyces cerevisiae (activity ≥ 30 U/mg) and porcine bile salt (purity ≥ 60.0%) were obtained from Yuanye Bio-Technology Co., Ltd. (Shanghai, China). Pepsin (activity ≥ 800 U/mg), pancreatin (activity ≥ 4000 U/g), and amyloglucosidase (activity ≥ 10,000 U/g) were obtained from Shanghai Ryon Biological Technology Co., Ltd. The p-nitrobenzene-α-D-glucopyranoside (pNPG, purity ≥ 99.0%) was purchased from Sigma-Aldrich (Shanghai, China). Peptides LADW and EEAEGT (purity ≥ 98.0%) were synthesized by ALL PEPTIDE Biology Co., Ltd. (Hangzhou, China). All other chemicals and solvents were of analytical grade.
α-Glucosidase inhibitory activity was determined following the method of Zheng et al., with slight modifications. Briefly, 80.0 μL of phosphate-buffered saline (PBS, pH = 6.8), 20.0 μL of α-glucosidase (7 U/mL, dissolved in PBS), and 20.0 μL of the peptide (dissolved in PBS) were mixed and incubated at 37 °C for 15 min. Subsequently, 20.0 μL of pNPG (2.5 mM, dissolved in PBS) was added to the mixture, followed by another incubation at 37 °C for 15 min. To terminate the reaction, 60 μL of Na2CO3 (0.2 M, dissolved in PBS) was added, and the absorbance was measured at 405 nm using a SpectraMax M5 microplate reader (Molecular Devices, Sunnyvale, CA, USA). The α-glucosidase inhibitory rate (%) was determined using the following formula:α-glucosidase inhibitory rate (%) = [1 − (Asample − Asample blank)/(Acontrol − Acontrol blank)] × 100 where Asample and Asample blank were the absorbance values with and without α-glucosidase added, respectively; Acontrol and Acontrol blank were the absorbance values with and without peptide solution added, respectively, after replacing α-glucosidase solution with PBS solution. The above solution without addition was replaced by PBS solution.

[3] = sensory evaluation in previous work; ref [7]; cited from earlier work; remark: listed apart in the source
Description: The intestinal stability, non-toxicity, and absorbability of peptides were considered important indicators for identifying bioactive peptides. In our previous work, these peptides were also confirmed to be non-toxic by sensory evaluation, and the peptides LADW and […] were obtained by hydrolysis with three common enzymes (pepsin, trypsin, and chymotrypsin) in the GI tract. […] Therefore, the potential α-GIPs identified in this study were presumed to withstand hy ...

[4] = parameters: method as in PMID 8001624; settings: clinical practice; ref [3]; cited from earlier work

| Compound | Umami Threshold [1] [mg/mL] | α-glucosidase inhibitory rate [2] [%] | IC50 [2] [mM] | Toxicity [3] | Adverse effects [4] |
| --- | --- | --- | --- | --- | --- |
| MEIDD [novel umami peptide identified in the hydrolysate of tuna skeletal myosin] | 0.250 | – | – | – | – |
| VAEQE [novel umami peptide identified in the hydrolysate of tuna skeletal myosin] | 0.125 | – | – | – | – |
| CC(C)C[C@H](N)C(=O)N[C@@H](C)C(=O)N[C@@H](CC(=O)O)C(=O)N[C@@H](Cc1c[nH]c2ccccc12)C(=O)O [LADW] (H-LADW-OH) | – | 98.15 | 4.4 ± 0.04 | non-toxic | – |
| C[C@H]1O[C@H](O[C@H]2[C@H](O)[C@@H](O)[C@@H](O[C@H]3[C@H](O)[C@@H](O)C(O)O[C@@H]3CO)O[C@@H]2CO)[C@H](O)[C@@H](O)[C@@H]1N[C@H]1C=C(CO)[C@@H](O)[C@H](O)[C@H]1O (stereo partly drawn) [acarbose] | – | – | – | – | flatulence, diarrhea, and abdominal pain |
| C[C@H](NC(=O)[C@H](CCC(=O)O)NC(=O)[C@@H](N)CCC(=O)O)C(=O)N[C@@H](CCC(=O)O)C(=O)NCC(=O)N[C@H](C(=O)O)[C@@H](C)O [EEAEGT] (H-EEAEGT-OH) | – | 96.44 | 6.46 ± 0.22 | non-toxic | – |
